Results as given in US8546440B2, “Substituted bicyclic imidazole derivatives as gamma secretase modulators” (Janssen Pharmaceuticals, Inc., priority 2008, dated 2013).

Experiments:
Aβ42 [1] = assay: Screening for γ-secretase-modulating activity, Method 1: Aβ42 sandwich ELISA in supernatant of SKNBE2 cells carrying APP 695 wild type (Tables 12a, 12b); type: cell-based
Method in brief: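 Aβ42 levels in the supernatant were measured by ELISA with 450 nm colorimetric read-out after 18 h compound exposure of wild-type APP695 SKNBE2 cells plated one day earlier. IC50 was fitted with a 4-parameter model, either with fixed top/bottom and a Hill slope of 1, or as averaged values from % of vehicle control; WST-1 was used to flag cytotoxicity.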

Aβtotal [2] = assay: Screening for γ-secretase-modulating activity, Method 1: Aβtotal sandwich ELISA in supernatant of SKNBE2 cells carrying APP 695 wild type (Tables 12a, 12b); type: cell-based
Method in brief: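 Aβtotal in conditioned medium was measured by 6E10/biotin-4G8 sandwich ELISA with fluorogenic peroxidase read-out. Cells were wild-type APP 695 SKNBE2, treated 18 hours in glutamine-supplemented Ultraculture. IC50 came from 4-parameter fits of inhibition, or percent of control, against concentration; toxicity was checked by WST-1.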

Aβtotal [3] = assay: Demonstration of in vivo efficacy: Aβtotal lowering in brain after single oral dose (Table 13); details: mouse brain soluble fraction, mean, compared to untreated animals
Description: (§1) To determine whether acute administration of an Aβ42 lowering agent would reduce Aβ42 levels in vivo, non-transgenic rodents, e.g. mice or rats were used. Alternatively, two to three month old Tg2576 mice expressing APP695 containing the “Swedish” variant can be used or a transgenic mouse model developed by Dr. Fred Van Leuven (K. U. Leuven, Belgium) and co-workers, with neuron-specific expression of a clinical mutant of the human amyloid precursor protein [V717I] (Moechars et al., 1999 J. Biol. Chem. 274, 6483). Young transgenic mice have high levels of Aβ in the brain but no detectable Aβ deposition. At approximately 6-8 months of age, the transgenic mice start to display spontaneous, progressive accumulation of β-amyloid (Aβ) in the brain, eventually resulting in amyloid plaques within the subiculum, hippocampus and cortex. Animals treated with the Aβ42 lowering agent were examined and compared to those untreated or treated with vehicle and brain levels of soluble Aβ42 and total Aβ would be quantitated by standard techniques, for example, using ELISA. Treatment periods varied from hours to days and were adjusted based on the results of the Aβ42 lowering once a time course of onset of effect could be established.
(§2) A typical protocol for measuring Aβ42 lowering in vivo is shown but it is only one of many variations that could be used to optimize the levels of detectable Aβ. For example, Aβ42 lowering compounds were formulated in 20% of Captisol® (a sulfobutyl ether of β-cyclodextrin) in water or 20% hydroxypropyl β cyclodextrin. The Aβ42 lowering agents were administered as a single oral dose or by any acceptable route of administration to overnight fasted animals. After four hours, the animals were sacrificed and Aβ42 levels were analysed.
(§3) Blood was collected by decapitation and exsanguinations in EDTA-treated collection tubes. Blood was centrifuged at 1900 g for 10 minutes at 4° C. and the plasma recovered and flash frozen for later analysis. The brain was removed from the cranium and hindbrain. The cerebellum was removed and the left and right hemisphere were separated. The left hemisphere was stored at −18° C. for quantitative analysis of test compound levels. The right hemisphere was rinsed with phosphate-buffered saline (PBS) buffer and immediately frozen on dry ice and stored at −80° C. until homogenization for biochemical assays.
Mouse brains were resuspended in 10 volumes of 0.4% DEA (diethylamine)/50 mM NaCl pH 10 (for non-transgenic animals) or 0.1% 3-[3-cholamidopropyl)-dimethyl-ammonio]-1-propanesulfonate (CHAPS) in tris buffered saline (TBS) (for transgenic animals) containing protease inhibitors (Roche-11873580001 or 04693159001) per gram of tissue, e.g. for 0.158 g brain, add 1.58 ml of 0.4% DEA. All samples were sonicated for 30 seconds on ice at 20% power output (pulse mode). Homogenates were centrifuged at 221.300×g for 50 min. The resulting high speed supernatants were then transferred to fresh tubes and were optionally further purified before the next step. A portion of the supernatant was neutralized with 10% 0.5 M Tris-HCl and this was used to quantify Aβtotal. […]
In this model at least 20% Aβ42 lowering compared to untreated animals would be advantageous.

Aβ42 [4] = assay: Demonstration of in vivo efficacy: Aβ42 lowering in brain after single oral dose (Table 13); details: mouse brain soluble fraction, ELISA, mean, compared to untreated animals
Description: as §1, §2, §3
Mouse brains were resuspended in 10 volumes of 0.4% DEA (diethylamine)/50 mM NaCl pH 10 (for non-transgenic animals) or 0.1% 3-[3-cholamidopropyl)-dimethyl-ammonio]-1-propanesulfonate (CHAPS) in tris buffered saline (TBS) (for transgenic animals) containing protease inhibitors (Roche-11873580001 or 04693159001) per gram of tissue, e.g. for 0.158 g brain, add 1.58 ml of 0.4% DEA. All samples were sonicated for 30 seconds on ice at 20% power output (pulse mode). Homogenates were centrifuged at 221.300×g for 50 min. The resulting high speed supernatants were then transferred to fresh tubes and were optionally further purified before the next step. A portion of the supernatant was neutralized with 10% 0.5 M Tris-HCl and this was used to quantify Aβtotal.
The obtained supernatants were purified with Water Oasis HLB reverse phase columns (Waters Corp., Milford, Mass.) to remove non-specific immunoreactive material from the brain lysates prior subsequent Aβ detection. Using a vacuum manifold, all solutions were passed through the columns at a rate of approximately 1 ml per minute, so the vacuum pressure was adjusted accordingly throughout the procedure. Columns were preconditioned with 1 ml of 100% MeOH, before equilibration with 1 ml of H2O. Non-neutralized brain lysates were loaded onto the columns. The loaded samples were then washed twice with the first wash performed with 1 ml of 5% MeOH, and the second wash with 1 ml of 30% MeOH. Finally, the Aβ was eluted from the columns and into 100×30 mm glass tubes, with a solution of 90% MeOH with 2% NH4OH. […]

Aβtotal [5] = assay: Screening for γ-secretase-modulating activity, Method 2: Aβtotal Alphalisa in supernatant of SKNBE2 cells carrying APP 695 wild type (Table 12c); type: cell-based; details: Homo sapiens, Method 2, Table 12c, incubated overnight
Method in brief: (§4)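 SKNBE2 cells expressing wild-type APP695, 10^4 cells/well, exposed to compound overnight at 37 °C; secreted Aβ42 and Aβtotal in supernatant measured by AlphaLISA sandwich immunoassays (Aβ42: C-terminal/N-terminal antibodies; Aβtotal: N-terminal/4G8). IC50 from 4-parameter fit of % untreated control.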

Aβ42 [6] = assay: Screening for γ-secretase-modulating activity, Method 2: Aβ42 Alphalisa in supernatant of SKNBE2 cells carrying APP 695 wild type (Table 12c); type: cell-based; details: Homo sapiens, Method 2, Table 12c, incubated overnight
Method in brief: as §4

[7] = Homo sapiens, Method 1, Table 12a, SKNBE2 cells carrying APP 695 wild type, compounds 18 hours, ELISA, curve top and bottom fixed to 100 and 0, hill slope 1
[8] = Homo sapiens, Table 12b, Method 1, SKNBE2 cells carrying APP 695 wild type, cell supernatant ELISA, averaged IC50 values, percentage of control vs log concentration
[9] = Homo sapiens, Table 12b, Method 1, SKNBE2 cells carrying APP 695 wild type, cell supernatant ELISA, averaged IC50 values
[10] = Method 1, Table 12a, SKNBE2 cells carrying APP 695 wild type, compounds 18 hours, ELISA, curve top and bottom fixed to 100 and 0, hill slope 1
[11] = Table 12b, Method 1, SKNBE2 cells carrying APP 695 wild type, cell supernatant ELISA, averaged IC50 values, percentage of control vs log concentration
[12] = Table 12b, Method 1, SKNBE2 cells carrying APP 695 wild type, cell supernatant ELISA, averaged IC50 values

| Compound | IC50 (Aβ42 [1]; [7]) | IC50 (Aβ42 [1]; [8]) | IC50 (Aβtotal [2]; [7]) | IC50 (Aβtotal [2]; [9]) | Aβtotal (% Ctrl)_Mean (Aβtotal [3]) | Aβ42 (% Ctrl)_Mean (Aβ42 [4]) | IC50 (Aβ42 [1]; [10]) | IC50 (Aβ42 [1]; [11]) | IC50 (Aβtotal [2]; [10]) | IC50 (Aβtotal [2]; [12]) | melting point | IC50 (Aβtotal [5]) | IC50 (Aβ42 [6]) |
| --- | --- | --- | --- | --- | --- | --- | --- | --- | --- | --- | --- | --- | --- |
| COc1cc(Nc2cccn3cc(Cc4ccc(F)cc4)nc23)ccc1-n1cnc(C)c1 [Compound 3] | 30 nM | 148 nM | > 1000 nM | 12600 nM | 95 % Ctrl | 56 % Ctrl |  |  |  |  |  |  |  |
| COc1cccc(-c2nc3c(Nc4ccc(-n5cncn5)c(OC)c4)cccn3c2C)c1 [Compound 7] | 37 nM | 36 nM | > 1000 nM | > 3020 nM | 105 % Ctrl | 68 % Ctrl |  |  |  |  |  |  |  |
| COc1cc(Nc2cccn3c(-c4ccc(F)cc4)cnc23)ccc1-n1cnc(C)c1 [Compound 8] | 541 nM | 562 nM | > 20000 nM | > 20000 nM | 96 % Ctrl | 88 % Ctrl |  |  |  |  |  |  |  |
| CCCc1nc2c(Nc3ccc(-n4cnc(C)c4)c(OC)c3)cccn2c1CC [Compound 10] |  |  |  |  | 104 % Ctrl | 67 % Ctrl | 54 nM | 51 nM | > 3000 nM | > 3020 nM |  |  |  |
| COc1cc(Nc2cccn3c(C)c(-c4ccccc4F)nc23)ccc1-n1cnc(C)c1 [Compound 18] | 25 nM | 25 nM | > 10000 nM | > 10000 nM | 101 % Ctrl | 73 % Ctrl |  |  |  |  |  |  |  |
| COc1cc(Nc2cccn3c(C)c(-c4ccc(F)cc4F)nc23)ccc1-n1cnc(C)c1 [Compound 26] | 11 nM | 11 nM | > 3000 nM | > 3020 nM | 94 % Ctrl | 75 % Ctrl |  |  |  |  |  |  |  |
| COc1cc(Nc2cccn3cc(-c4ccc(C#N)cc4)nc23)ccc1-n1cnc(C)c1 [Compound 31] | 595 nM | 589 nM | > 5000 nM | > 30200 nM |  |  |  |  |  |  | 193.4 °C |  |  |
| COc1ccccc1-c1cn2cccc(Nc3ccc(-n4cnc(C)c4)c(OC)c3)c2n1 [Compound 32] | 114 nM | 105 nM | > 5000 nM | > 5010 nM | 113 % Ctrl | 81 % Ctrl |  |  |  |  |  |  |  |
| COc1cccc(-c2nc3c(Nc4ccc(-n5cnc(C)c5)c(OC)c4)cccn3c2C)c1 [Compound 34] | 9 nM | 9 nM | > 3000 nM | > 3020 nM | 100 % Ctrl | 63 % Ctrl |  |  |  |  |  |  |  |
| COc1cccc(-c2nc3c(Nc4ccc(-n5ccnc5)c(OC)c4)cccn3c2C)c1 [Compound 35] | 19 nM | 19 nM | > 1000 nM | > 3020 nM |  |  |  |  |  |  | 124.2 °C |  |  |
| COc1cc(Nc2cccn3c(C)c(-c4ccc(CC(C)C)cc4)nc23)ccc1-n1cnc(C)c1 [Compound 38] | 54 nM | 51 nM | > 3000 nM | > 3020 nM |  |  |  |  |  |  | 224.6 °C |  |  |
| CCN(CC)c1ccc(-c2cn3cccc(Nc4ccc(-n5cnc(C)c5)c(OC)c4)c3n2)cc1 [Compound 39] | 75 nM | 68 nM | > 3000 nM | > 3020 nM | 108 % Ctrl | 82 % Ctrl |  |  |  |  |  |  |  |
| COc1cc(Nc2cccn3cc(-c4ccc(N5CCOCC5)cc4)nc23)ccc1-n1cnc(C)c1 [Compound 40] | 62 nM | 56 nM | > 3000 nM | > 3020 nM | 99 % Ctrl | 80 % Ctrl |  |  |  |  |  |  |  |
| COc1cc(Nc2cccn3cc(-c4ccc(F)cc4C)nc23)ccc1-n1cnc(C)c1 [Compound 52] | 10 nM | 10 nM | > 3000 nM | > 3020 nM | 91 % Ctrl | 66 % Ctrl |  |  |  |  |  |  |  |
| CCc1cn(-c2ccc(Nc3cccn4c(C)c(-c5cccc(OC)c5)nc34)cc2OC)cn1 [Compound 63] | 29 nM | 29 nM | > 3000 nM | > 3020 nM |  |  |  |  |  |  | 159.9 °C |  |  |
| COc1cc(Nc2cccn3cc(-c4ccccc4C)nc23)ccc1-n1cnc(C)n1 [Compound 70] |  |  |  |  | 99 % Ctrl | 84 % Ctrl |  |  |  |  |  | > 3020 nM | 68 nM |
| Cc1ncn(-c2ccc(Nc3cccn4cc(-c5cc(C(F)(F)F)ccc5C)nc34)cc2F)n1 [Compound 74] |  | 123 nM |  | > 3020 nM | 102 % Ctrl | 95 % Ctrl |  |  |  |  |  |  |  |
| Cc1ncn(-c2ccc(Nc3cccn4c(C)c(-c5ccccc5Cl)nc34)nc2)n1 [Compound 83] |  |  |  |  | 104 % Ctrl | 89 % Ctrl |  | 355 nM |  | > 10000 nM |  |  |  |
| Cc1ncn(-c2ccc(Nc3cccn4cc(-c5ccccc5C)nc34)cn2)n1 [Compound 86] |  |  |  |  | 96 % Ctrl | 86 % Ctrl |  | 117 nM |  | > 10000 nM |  |  |  |
| Cc1ncn(-c2ccc(Nc3cccn4c(C)c(-c5ccccc5Cl)nc34)cn2)n1 [Compound 87] |  |  |  |  | 101 % Ctrl | 86 % Ctrl |  | 25 nM |  | > 10000 nM |  |  |  |
| COc1ccc(C)c(-c2cn3cccc(Nc4ccc(-n5cnc(C)n5)c(F)c4)c3n2)c1 [Compound 94] |  | 115 nM |  | > 3020 nM | 101 % Ctrl | 96 % Ctrl |  |  |  |  |  |  |  |
| Cc1ncn(-c2ccc(Nc3cccn4cc(-c5ccc(F)cc5C)nc34)cn2)n1 [Compound 98] |  |  |  |  | 97 % Ctrl | 84 % Ctrl |  | 32 nM |  | > 3020 nM |  |  |  |
